Test results reported in ChEMBL document CHEMBL5550130, “Discovery of harmiprims, harmine-primaquine hybrids, as potent and selective anticancer and antimalarial compounds” (Bioorg Med Chem, 2024).
Active and inactive are the calls of the source. The rule behind the calls is not given here.

What was measured:
[1] = tested on: Calf thymus DNA; experiment: Binding affinity to calf thymus DNA assessed as binding constant by UV-Visible absorption spectroscopic analysis; settings: Bos taurus
[2] = tested on: RNA; experiment: Binding affinity to double stranded RNA (unknown origin) by CD spectroscopic analysis; assay type: nucleic-acid assay
[3] = Drug uptake in human MCF7 cells at 1 uM incubated for 30 mins by Mitotracker Deep Red staining confocal microscopic analysis; assay type: ADME, cell-based; settings: mcf7, 0.5 h
[4] = tested on: MCF7; experiment: Induction of cell cycle arrest in human MCF7 cells assessed as increase in accumulation of cells at G1 phase at 0.75 uM measured after 48 hrs by propidium iodide/RNAse A staining based cell sorter analysis; assay type: functional
[5] = tested on: Plasmodium falciparum; experiment: Antiplasmodial activity against erythrocytic stage of chloroquine-resistant Plasmodium falciparum Dd2 assessed as inhibition of parasite growth incubated for 3 days by HRP2-ELISA; assay type: functional, organism-based; settings: Dd2, 72 h
[6] = tested on: MCF7; experiment: Induction of cell cycle arrest in human MCF7 cells assessed as decrease in accumulation of cells at S phase at 0.75 uM measured after 24 hrs by propidium iodide/RNAse A staining based cell sorter analysis; assay type: functional
[7] = Selectivity index, ratio of IC50 for antiproliferative activity against human HEK293T cells to IC50 for antiplasmodial activity against erythrocytic stage of chloroquine-sensitive Plasmodium falciparum 3D7; assay type: toxicity, cell-based; settings: read-out: Ratio IC50
[8] = tested on: SW-620; experiment: Antiproliferative activity against human SW620 cells assessed as reduction in cell viability incubated for 72 hrs by MTT assay; assay type: functional, cell-based; settings: SW-620, 72 h
[9] = tested on: dsDNA; experiment: Binding affinity to double stranded DNA (unknown origin) assessed as increase in fluorescence intensity by fluorescence quenching analysis; assay type: nucleic-acid assay
[10] = tested on: Plasmodium falciparum; experiment: Antiplasmodial activity against erythrocytic stage of chloroquine-sensitive Plasmodium falciparum 3D7 assessed as inhibition of parasite growth incubated for 3 days by HRP2-ELISA; assay type: functional, organism-based; settings: 3D7, 72 h
[11] = tested on: Huh-7; experiment: Cytotoxicity against human Huh-7 cells infected with Plasmodium berghei sporozoites at 10 uM by alamar blue staining based assay; assay type: functional, cell-based
[12] = tested on: Calf thymus DNA; experiment: Binding affinity to calf thymus DNA assessed as thermal stabilization by thermal denaturation based UV-Visible absorption spectroscopic analysis; settings: Bos taurus
[13] = tested on: MCF7; experiment: Induction of cell cycle arrest in human MCF7 cells assessed as increase in accumulation of cells at G2/M phase at 0.75 uM measured upto 48 hrs by propidium iodide/RNAse A staining based cell sorter analysis; assay type: functional
[14] = tested on: RNA; experiment: Binding affinity to double stranded RNA (unknown origin) assessed as increase in fluorescence intensity by fluorescence quenching analysis; assay type: nucleic-acid assay
[15] = tested on: Plasmodium berghei; experiment: Antiplasmodial activity against hepatic stage of Plasmodium berghei sporozoites infected in human Huh-7 cells assessed as reduction in parasite growth at 1 uM incubated for 1 hr by bioluminescence assay; assay type: functional, organism-based
[16] = tested on: Plasmodium falciparum; experiment: Resistance index, ratio of IC50 for antiplasmodial activity against erythrocytic stage of chloroquine-resistant Plasmodium falciparum Dd2 to IC50 for antiplasmodial activity against erythrocytic stage of chloroquine-sensitive Plasmodium falciparum 3D7; assay type: functional
[17] = tested on: MCF7; experiment: Antiproliferative activity against human MCF7 cells assessed as reduction in cell viability incubated for 72 hrs by MTT assay; assay type: functional, cell-based; settings: MCF7, 72 h
[18] = tested on: Plasmodium berghei; experiment: Antiplasmodial activity against hepatic stage of Plasmodium berghei sporozoites infected in human Huh-7 cells assessed as reduction in parasite growth at 10 uM incubated for 1 hr by bioluminescence assay; assay type: functional, organism-based
[19] = tested on: dsDNA; experiment: Binding affinity to double stranded DNA (unknown origin) by CD spectroscopic analysis; assay type: nucleic-acid assay
[20] = tested on: RNA; experiment: Binding affinity to double stranded RNA (unknown origin) assessed as thermal stabilization by thermal denaturation based UV-Visible absorption spectroscopic analysis; assay type: nucleic-acid assay
[21] = tested on: HepG2; experiment: Antiproliferative activity against human HepG2 cells assessed as reduction in cell viability incubated for 72 hrs by MTT assay; assay type: functional, cell-based; settings: HepG2, 72 h
[22] = Selectivity index, ratio of IC50 for antiproliferative activity against human HEK293T cells to IC50 for antiproliferative activity against human MCF7 cells; assay type: toxicity, cell-based; settings: HEK293T cells versus MCF7 cells, read-out: Ratio IC50
[23] = tested on: HCT-116; experiment: Antiproliferative activity against human HCT-116 cells assessed as reduction in cell viability incubated for 72 hrs by MTT assay; assay type: functional, cell-based; settings: HCT-116, 72 h
[24] = Antiproliferative activity against human HEK293T cells assessed as reduction in cell viability incubated for 72 hrs by MTT assay; assay type: toxicity, cell-based, HEK-293T
[25] = tested on: MCF7; experiment: Induction of cell cycle arrest in human MCF7 cells assessed as increase in accumulation of cells at G1 phase at 0.75 uM measured after 24 hrs by propidium iodide/RNAse A staining based cell sorter analysis; assay type: functional
[26] = tested on: Huh-7; experiment: Cytotoxicity against human Huh-7 cells infected with Plasmodium berghei sporozoites at 1 uM by alamar blue staining based assay; assay type: functional, cell-based
[27] = tested on: RNA; experiment: Binding affinity to double stranded RNA (unknown origin) assessed as binding constant by UV-Visible absorption spectroscopic analysis; assay type: nucleic-acid assay
[28] = tested on: Plasmodium berghei; experiment: Antiplasmodial activity against hepatic stage of Plasmodium berghei sporozoites infected in human Huh-7 cells assessed as inhibition of parasite growth incubated for 1 hr by bioluminescence assay; assay type: functional, organism-based; settings: Huh-7, 1 h
[29] = Drug uptake in human MCF7 cells at 10 uM incubated for 1 hr by fluorescence microscopic analysis; assay type: ADME, cell-based; settings: mcf7, 1 h
[30] = tested on: Plasmodium falciparum; experiment: Gametocytocidal activity against gametocytes of Plasmodium falciparum NF54 assessed as inhibition of ATP production measured after 48 hrs by Bac-TiterGlo analysis; assay type: functional, organism-based; settings: NF54, 48 h

Row | Compound | log Ks [1] | Activity [2] | IC50 [5] [nM] | selectivity ratio [7] | IC50 [8] [nM] | Activity [9] | IC50 [10] [nM] | Activity [11] | Activity [12] | Activity [14] | Activity [15] | Ratio IC50 [16] | IC50 [17] [nM] | Activity [18] | Activity [19] | Activity [20] | IC50 [21] [nM] | IC50 [23] [nM] | IC50 at 72 h [24] [nM] | Activity [26] | other results
1 | COc1cc(NC(C)CCCNC(=O)NCc2nccc3c2[nH]c2ccccc23)c2ncccc2c1 (stereo not given) | 5.5 | inactive | 6130 | 0.1 | 2480 | Active | 4700 | Active | inactive | Active | Active | 1.31 | 1430 | Active | inactive | inactive | 690 | 940 | 680 | Active | Drug uptake [3]: Not Active; Activity [4]: Active; Activity [6]: Active; Activity [13]: inactive; selectivity ratio [22]: < 0.48; Activity [25]: Active; log Ks [27]: 4.2
2 | COc1cc(NC(C)CCCn2cc(COc3ccc4[nH]c5c(C)nccc5c4c3)nn2)c2ncccc2c1-c1c(OC)cc(NC(C)CCCn2cc(COc3ccc4[nH]c5c(C)nccc5c4c3)nn2)c2ncccc12 (stereo not given) | 5.8 | inactive | 17.2 | > 3250 | > 50000 | Active | 15.4 | inactive | inactive | Active | Active | 1.12 | > 100000 | Active | inactive | inactive | > 50000 | > 50000 | > 50000 | inactive | IC50 [28]: 36 nM; Drug uptake [29]: Not Active; IC50 [30]: 90.5 nM
